In US8227625B2, “4,5,6,7-tetrahydrobenzo[b]thiophene derivatives and their use as sigma receptor ligands” (Laboratorios del Dr. Esteve, S.A., priority 2006, dated 2012):

Experiments:
[1] = target: T1, Sigma-1 receptor (Cavia porcellus, UniProt Q60492); assay: Sigma-1 receptor radioligand binding assay, [3H](+)-pentazocine, guinea pig brain membranes; conditions: [3H](+)-pentazocine 0.5 nM; for % Binding σ1 10^−7M: compound at 10^−7M; for % Binding σ1 10^−8M: compound at 10^−8M
T1 construct: from tissue; host or cells: guinea pig brain membranes
T1 sequence (Q60492 whole entry): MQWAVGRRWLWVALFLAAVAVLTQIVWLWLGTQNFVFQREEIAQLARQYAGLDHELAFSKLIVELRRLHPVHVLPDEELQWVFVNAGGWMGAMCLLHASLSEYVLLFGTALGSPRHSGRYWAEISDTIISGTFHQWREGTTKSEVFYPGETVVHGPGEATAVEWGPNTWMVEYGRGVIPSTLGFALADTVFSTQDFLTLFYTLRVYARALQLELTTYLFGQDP
Protocol: Brain membrane preparation and binding assays for the al-receptor were performed as described (DeHaven-Hudkins et al., 1992) with some modifications. In brief, guinea pig brains were homogenized in 10 vols. (w/v) of Tris-HCl 50 mM 0.32 M sucrose, pH 7.4, with a Kinematica Polytron PT 3000 at 15000 r.p.m. for 30 s. The homogenate was centrifuged at 1000 g for 10 min at 4° C. and the supernatants collected and centrifuged again at 48000 g for 15 min at 4° C. The pellet was resuspended in 10 volumes of Tris-HCl buffer (50 mM, pH 7.4), incubated at 37° C. for 30 min, and centrifuged at 48000 g for 20 min at 4° C. Following this, the pellet was resuspended in fresh Tris-HCl buffer (50 mM, pH 7.4) and stored on ice until use.
Each assay tube contained 10 μL of [^3H](+)-pentazocine (final concentration of 0.5 nM), 900 μL of the tissue suspension to a final assay volume of 1 mL and a final tissue concentration of approximately 30 mg tissue net weight/mL. Non-specific binding was defined by addition of a final concentration of 1 μM haloperidol. All tubes were incubated at 37° C. for 150 min before termination of the reaction by rapid filtration over Schleicher & Schuell GF 3362 glass fibre filters [previously soaked in a solution of 0.5% polyethylenimine for at least 1 h]. Filters were then washed with four times with 4 mL of cold Tris-HCl buffer (50 mM, pH 7.4). Following addition of scintillation cocktail, the samples were allowed to equilibrate overnight. The amount of bound radioactivity was determined by liquid scintillation spectrometry using a Wallac Winspectral 1414 liquid scintillation counter. Protein concentrations were determined by the method of Lowry et al. (1951).

Compound	% Binding σ1 10^−7M [1]	% Binding σ1 10^−8M [1]	melting point
CN(C/C=C1\CCCc2sccc21)Cc1ccccc1 [Example 3, (E)-N-benzyl-2-(6,7-dihydrobenzo[b]thien-4(5H)-ylidene)-N-methylethanamine]	70.6%	27.3%	–
C(/CN1CCC(c2ccccc2)CC1)=C1/CCCc2sccc21 [Example 5, (E)-1-(2-(6,7-dihydrobenzo[b]thien-4(5H)-ylidene)ethyl)-4-phenylpiperidine]	84.5%	32.8%	–
CN(C/C=C1\CCCc2sccc21)CCc1ccccc1 [Example 7, (E)-N-(2-(6,7-dihydrobenzo[b]thien-4(5H)-ylidene)ethyl)-N-methyl-2-phenylethanamine]	89.3%	48.6%	–
C(/CN1CCCCC1)=C1/CCCc2sccc21 [Example 9, (E)-1-(2-(6,7-dihydrobenzo[b]thien-4(5H)-ylidene)ethyl)piperidine]	23%	5%	–
CC1CCN(C/C=C2\CCCc3sccc32)CC1 [Example 11, (E)-1-(2-(6,7-dihydrobenzo[b]thien-4(5H)-ylidene)ethyl)-4-methylpiperidine]	70.9%	18.2%	–
O=C(O)C(=O)O.O=C1N(c2ccc(C(F)(F)F)cc2)CCC12CCN(CCC1CCCc3sccc31)CC2 (centres unmarked) [Example 89, 2-(4-trifluoromethylphenyl)-8-[2-(4,5,6,7-tetrahydrobenzo[b]thiophen-4-yl)-ethyl]-2,8-diazaspiro[4.5]decan-1-one oxalate]	–	–	166 to 168 °C
Brc1cccc2c1CCN(CCC1CCCc3sccc31)C2.O=C(O)C(=O)O (centres unmarked) [Example 91, 5-bromo-2-(2-(4,5,6,7-tetrahydrobenzo[b]thiophen-4-yl)ethyl)-1,2,3,4-tetrahydroisoquinoline oxalate]	–	–	167 to 168 °C
N#Cc1ccc2c(c1)CN(CCC1CCCc3sccc31)CC2.O=C(O)C(=O)O (centres unmarked) [Example 93, 2-(2-(4,5,6,7-tetrahydrobenzo[b]thiophen-4-yl)ethyl)-1,2,3,4-tetrahydroisoquinoline-7-carbonitrile oxalate]	–	–	180 to 181 °C
O=C(O)C(=O)O.O=C1N(c2ccc(F)cc2)CCC12CCN(CCC1CCCc3sccc31)CC2 (centres unmarked) [Example 95, 2-(4-Fluorophenyl)-8-[2-(4,5,6,7-tetrahydrobenzo[b]thiophen-4-yl)-ethyl]-2,8-diazaspiro[4.5]decan-1-one oxalate]	–	–	195 to 199 °C
